The source of these data is ChEMBL document CHEMBL3612043, “Synthesis and biological evaluation of 6-substituted indolizinoquinolinediones as catalytic DNA topoisomerase I inhibitors” (Eur J Med Chem, 2015).

Active and inactive are the calls of the source. The calls are words filed in the database; no cut-off is given here.

The subject of one experiment is A549. The experiment can be described thus: cells. Particulars: Homo sapiens, A549, 48 h.
Experiment [1] has as its target T1, DNA topoisomerase 1 (Homo sapiens) (UniProt P11387).
T1 sequence (whole entry): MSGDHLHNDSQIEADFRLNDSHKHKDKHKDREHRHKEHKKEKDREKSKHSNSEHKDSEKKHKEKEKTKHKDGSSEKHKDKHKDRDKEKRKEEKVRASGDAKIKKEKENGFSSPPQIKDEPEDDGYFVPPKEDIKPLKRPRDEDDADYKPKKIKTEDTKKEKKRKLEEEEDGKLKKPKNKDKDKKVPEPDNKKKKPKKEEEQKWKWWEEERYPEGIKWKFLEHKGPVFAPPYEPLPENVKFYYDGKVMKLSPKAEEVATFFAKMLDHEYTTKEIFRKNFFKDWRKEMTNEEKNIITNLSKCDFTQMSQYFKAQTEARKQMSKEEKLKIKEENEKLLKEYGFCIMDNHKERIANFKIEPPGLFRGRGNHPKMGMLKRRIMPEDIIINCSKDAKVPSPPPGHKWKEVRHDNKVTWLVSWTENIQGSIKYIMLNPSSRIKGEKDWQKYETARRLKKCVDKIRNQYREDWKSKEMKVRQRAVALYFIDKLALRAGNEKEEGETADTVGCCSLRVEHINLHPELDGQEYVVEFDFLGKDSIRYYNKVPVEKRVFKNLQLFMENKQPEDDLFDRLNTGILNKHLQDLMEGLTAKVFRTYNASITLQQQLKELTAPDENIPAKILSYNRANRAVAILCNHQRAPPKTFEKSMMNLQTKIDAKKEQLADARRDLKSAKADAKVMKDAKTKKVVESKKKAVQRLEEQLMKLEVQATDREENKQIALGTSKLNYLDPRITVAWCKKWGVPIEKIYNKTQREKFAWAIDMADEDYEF
The experiment can be described thus: Inhibition of Top1 (unknown origin)-mediated unwinding of relaxed pBR322 DNA preincubated for 10 mins measured after 30 mins by UV transilluminator analysis.

A further experiment deals with HeLa. The experiment can be described thus: cells. Particulars: Homo sapiens, 48 h.
Another experiment has as its system HL-60. The experiment can be described thus: cells. The note with it: Homo sapiens, HL-60, 48 h.
Another experiment has as its system CA46. The experiment in a line: Cytotoxicity against human CA46 cells after 48 hrs by MTT assay. Format: functional, cell-based. The note with it: CA46, 48 h. For orientation: Tetrazolium assays rely on reduction of a dye to a coloured formazan, in cell work by metabolically active cells.
Experiment [2] has as its target T1, DNA topoisomerase 1 (Homo sapiens). The experiment in a line: Induction of recombinant Top1 (unknown origin) assessed as 3'-[32P]-labeled 117-bp DNA oligonucleotide cleavage after 20 mins.
The species entered for the next experiment is Bos taurus. The experiment in a line: Inhibition of calf thymus Top1-mediated pBR322 DNA relaxation at 25 uM preincubated for 15 mins measured after 30 mins by ethidium bromide staining relative to camptothecin.

Description for A549: Cytotoxicity against human A549 cells after 48 hrs by MTT assay
Description for HL-60: Cytotoxicity against human HL60 cells after 48 hrs by MTT assay
Description for HeLa: Cytotoxicity against human HeLa cells after 48 hrs by MTT assay

For the molecule `O=C1c2cccnc2C(=O)c2c1c(C(=O)OCCc1ccccn1)c1ccccn21`, the half-inhibitory concentration (IC50) in the experiment with A549 came to 7800 nM; in the experiment on HeLa, 1100 nM; in the experiment with HL-60 it was 110 nM; with CA46 it was 2900 nM. Also, in experiment [1], the inhibition result was “inactive”. For the same molecule, the result in experiment [2] was inactive. The Top1 relaxation inhibition relative to camptothecin (%) in the experiment listed under Bos taurus is 81%.

With `O=C1c2cccnc2C(=O)c2c1c(C(=O)N1CCCCC1)c1ccccn21`, the half-maximal inhibitory concentration (IC50) with A549 worked out at 76000 nM; with HeLa, 19000 nM; with HL-60 it was 52000 nM; with CA46, 13000 nM. Moreover, the outcome in experiment [2] was inactive. The Top1 relaxation inhibition relative to camptothecin (%) in the experiment filed under Bos taurus is less than 40%.

Regarding `O=C1c2cccnc2C(=O)c2c1c(C(=O)OCCCN1CCCCC1)c1ccccn21`, the IC50 with A549 worked out at 1000 nM; in the experiment with HeLa, 480 nM; with HL-60 it was 25 nM; in the experiment with CA46 it was 900 nM. The inhibition entry in experiment [1] was “Active”. Besides, the result in experiment [2] was inactive. In addition, in the experiment filed under Bos taurus, the Top1 relaxation inhibition relative to camptothecin (%) is more than 120%.

As for `O=C1c2cccnc2C(=O)c2c1c(C(=O)N1CCOCC1)c1ccccn21`, the 50% inhibitory concentration (IC50) with A549 was 77000 nM; in the experiment with HeLa, more than 100000 nM; in the experiment on HL-60, 22000 nM; with CA46 it was 13000 nM. Further, in experiment [2], the result was inactive. In addition, the Top1 relaxation inhibition relative to camptothecin (%) in the experiment filed under Bos taurus is less than 40%.

As for `CN1CCN(CCCNC(=O)c2c3c(n4ccccc24)C(=O)c2ncccc2C3=O)CC1`, the IC50 was 5500 nM with A549, 8900 nM in the experiment with HeLa, 2200 nM in the experiment with HL-60 and 3800 nM in the experiment with CA46. Moreover, the inhibition result in experiment [1] is “Active”. Besides, the outcome in experiment [2] was inactive. Further, the Top1 relaxation inhibition relative to camptothecin (%) in the experiment listed under Bos taurus was more than 120%.

On to `O=C1c2cccnc2C(=O)c2c1c(C(=O)OCCBr)c1ccccn21`, for which the result in experiment [2] was inactive.

As for `O=C1c2cccnc2C(=O)c2c1c(C(=O)OCCCBr)c1ccccn21`, the result in experiment [2] was inactive.

As for `O=C1c2cccnc2C(=O)c2c1c(C(=O)NCCN1CCOCC1)c1ccccn21`, the IC50 in the experiment on A549 was determined as 890 nM; in the experiment on HeLa, 1600 nM; with HL-60 it was 1200 nM; in the experiment with CA46 it was 3400 nM. Besides, in experiment [1], the inhibition result is “Active”. Besides, the result in experiment [2] was inactive. For the same molecule, in the experiment filed under Bos taurus, the Top1 relaxation inhibition relative to camptothecin (%) was more than 120%.

Take `O=C1c2cccnc2C(=O)c2c1c(C(=O)OCCN1CCCCC1)c1ccccn21`: the concentration for half-maximal inhibition (IC50) in the experiment with A549 was 520 nM; in the experiment on HeLa, 2200 nM; in the experiment with HL-60 it was 320 nM; in the experiment with CA46 it was 3000 nM. Further, the inhibition entry in experiment [1] was “Active”. Besides, the result in experiment [2] was inactive. In addition, the Top1 relaxation inhibition relative to camptothecin (%) in the experiment filed under Bos taurus was more than 120%.

On to `O=C1c2cccnc2C(=O)c2c1c(C(=O)NCCn1ccnc1)c1ccccn21`, for which the IC50 in the experiment on A549 stood at 2300 nM; with HeLa, 5800 nM; in the experiment with HL-60, 2300 nM; in the experiment with CA46 it was 2900 nM. In experiment [1], the inhibition entry is “inactive”. Besides, the outcome in experiment [2] was inactive. In addition, the Top1 relaxation inhibition relative to camptothecin (%) in the experiment listed under Bos taurus was more than 120%.

For the molecule `O=C1c2cccnc2C(=O)c2c1c(C(=O)NCCCN1CCCCC1)c1ccccn21`, the half-maximal inhibitory concentration (IC50) in the experiment with A549 amounted to 3300 nM; in the experiment with HeLa it was 1200 nM; in the experiment on HL-60, 1300 nM; in the experiment on CA46, 1200 nM. Besides, in experiment [1], the inhibition entry was “Active”. For the same molecule, the outcome in experiment [2] was inactive. For the same molecule, the Top1 relaxation inhibition relative to camptothecin (%) in the experiment filed under Bos taurus was more than 120%.

`O=C1c2cccnc2C(=O)c2c1c(C(=O)NCCN1CCCC1)c1ccccn21`: the half-inhibitory concentration (IC50) with A549 is 490 nM; in the experiment with HeLa, 780 nM; with HL-60, 1200 nM; with CA46, 15000 nM. Further, in experiment [1], the inhibition result was “Active”. In addition, the outcome in experiment [2] was inactive. Besides, the Top1 relaxation inhibition relative to camptothecin (%) in the experiment listed under Bos taurus is more than 120%.

With `O=C1c2cccnc2C(=O)c2c1c(C(=O)OCCN1CCOCC1)c1ccccn21`, the IC50 was less than 10 nM with A549, 10000 nM in the experiment with HeLa, 34 nM in the experiment with HL-60 and 5800 nM in the experiment on CA46. Moreover, in experiment [1], the inhibition result was “inactive”. The result in experiment [2] was inactive. For the same molecule, the Top1 relaxation inhibition relative to camptothecin (%) in the experiment filed under Bos taurus is more than 120%.

For `CCOC(=O)c1c2c(n3ccccc13)C(=O)c1ncccc1C2=O`, the IC50 in the experiment on A549 was 1400 nM; with HeLa, 22000 nM; in the experiment on HL-60 it was 300 nM; in the experiment on CA46, 3700 nM. Besides, the inhibition result in experiment [1] was “inactive”. In addition, the result in experiment [2] was inactive. In the experiment listed under Bos taurus, the Top1 relaxation inhibition relative to camptothecin (%) was 81%.

With `O=C1c2cccnc2C(=O)c2c1c(C(=O)NCCCc1ccccc1)c1ccccn21`, the IC50 in the experiment with A549 stood at 15000 nM; with HeLa, 29000 nM; with HL-60, 75000 nM; in the experiment on CA46, 14000 nM. For the same molecule, in experiment [2], the result was inactive. Further, the Top1 relaxation inhibition relative to camptothecin (%) in the experiment listed under Bos taurus is 40%.

For `O=C1c2cccnc2C(=O)c2c1c(C(=O)NCCc1ccccc1)c1ccccn21`, the IC50 in the experiment on A549 was determined as 19000 nM; with HeLa, 17000 nM; with HL-60 it was 14000 nM; in the experiment with CA46, 7900 nM. The result in experiment [2] was inactive. The Top1 relaxation inhibition relative to camptothecin (%) in the experiment listed under Bos taurus is less than 40%.

Take `O=C1c2cccnc2C(=O)c2c1c(C(=O)OCCN1CCCC1)c1ccccn21`: the outcome in experiment [2] was inactive.

Consider `O=C1c2cccnc2C(=O)c2c1c(C(=O)OCCCN1CCOCC1)c1ccccn21`, for which the IC50 with A549 came to 1900 nM; in the experiment with HeLa it was 2200 nM; in the experiment on HL-60 it was 64 nM; in the experiment on CA46, 1400 nM. Besides, in experiment [1], the inhibition result is “Active”. Further, the result in experiment [2] was inactive. Further, the Top1 relaxation inhibition relative to camptothecin (%) in the experiment filed under Bos taurus was more than 120%.

With `O=C1c2cccnc2C(=O)c2c1c(C(=O)NCCCN1CCCC1)c1ccccn21`, the IC50 in the experiment on A549 stood at 1200 nM; in the experiment with HeLa it was 1800 nM; in the experiment on HL-60 it was 1900 nM; with CA46, 2700 nM. Moreover, the inhibition result in experiment [1] is “Active”. The result in experiment [2] was inactive. Besides, the Top1 relaxation inhibition relative to camptothecin (%) in the experiment listed under Bos taurus was more than 120%.

`O=C1c2cccnc2C(=O)c2c1c(C(=O)NCCCN1CCOCC1)c1ccccn21`: the concentration for half-maximal inhibition (IC50) in the experiment on A549 came out at 4200 nM; with HeLa it was 5900 nM; with HL-60, 1300 nM; with CA46, 1100 nM. Moreover, the inhibition entry in experiment [1] is “Active”. The result in experiment [2] was inactive. Further, the Top1 relaxation inhibition relative to camptothecin (%) in the experiment listed under Bos taurus is more than 120%.

For the molecule `CCN(CC)C(=O)c1c2c(n3ccccc13)C(=O)c1ncccc1C2=O`, the IC50 in the experiment on A549 came to 64000 nM; in the experiment on HeLa it was 46000 nM; with HL-60, 14000 nM; with CA46 it was 15000 nM. Moreover, the outcome in experiment [2] was inactive. Also, in the experiment listed under Bos taurus, the Top1 relaxation inhibition relative to camptothecin (%) was less than 40%.

For `CN(C)CCNC(=O)c1c2c(n3ccccc13)C(=O)c1ncccc1C2=O`, the concentration for half-maximal inhibition (IC50) in the experiment with A549 came out at 610 nM; in the experiment on HeLa, 920 nM; in the experiment on HL-60, 1200 nM; in the experiment with CA46, 5900 nM. Moreover, the inhibition entry in experiment [1] was “Active”. Moreover, in experiment [2], the result was inactive. In addition, the Top1 relaxation inhibition relative to camptothecin (%) in the experiment filed under Bos taurus is more than 120%.

For the molecule `CN(C)CCCNC(=O)c1c2c(n3ccccc13)C(=O)c1ncccc1C2=O`, the IC50 in the experiment with A549 amounted to 370 nM; in the experiment with HeLa, 960 nM; with HL-60 it was 2300 nM; in the experiment on CA46 it was 1200 nM. The inhibition entry in experiment [1] is “Active”. In experiment [2], the outcome was inactive. Further, the Top1 relaxation inhibition relative to camptothecin (%) in the experiment filed under Bos taurus was more than 120%.

`O=C1c2cccnc2C(=O)c2c1c(C(=O)OCCCN1CCCC1)c1ccccn21`: the IC50 worked out at 140 nM in the experiment with A549, 940 nM in the experiment on HeLa, 26 nM with HL-60 and 1100 nM in the experiment with CA46. The inhibition entry in experiment [1] was “Active”. For the same molecule, the result in experiment [2] was inactive. In addition, the Top1 relaxation inhibition relative to camptothecin (%) in the experiment listed under Bos taurus is more than 120%.

`O=C1c2cccnc2C(=O)c2c1c(C(=O)NCCN1CCCCC1)c1ccccn21`: the result in experiment [2] was inactive.

Regarding `CCNC(=O)c1c2c(n3ccccc13)C(=O)c1ncccc1C2=O`, the result in experiment [2] was inactive.

For the molecule `CN1CCN(C(=O)c2c3c(n4ccccc24)C(=O)c2ncccc2C3=O)CC1`, the IC50 with A549 was determined as 30000 nM; in the experiment on HeLa, 62000 nM; in the experiment with HL-60, 5700 nM; in the experiment with CA46 it was 2600 nM. The result in experiment [2] was inactive. Also, in the experiment listed under Bos taurus, the Top1 relaxation inhibition relative to camptothecin (%) was 40%.

The term IC50 denotes the concentration that inhibits the measured activity by half.
